pEC50: −log10 of the molar value.
How the values were obtained:
Assay type in all cases: functional
[1] = biological target: GABA-A receptor; anion channel; experiment: Activation of chloride ion uptake into mouse brain synaptoneurosomes
[2] = biological target: T1, GABA-A receptor; anion channel (Mus musculus) (UniProt Q8BHJ7+P26048+Q8QZW7+P50571+Q9R0Y8+P22723+A2AMW3+P62812+Q9JLF1+P26049+P22933+Q9D6F4+P63080+P27681+P16305); experiment: Agonistic activity against GABA-A receptor chloride uptake, full agonist
[3] = biological target: T1, GABA-A receptor; anion channel (Mus musculus); experiment: Agonistic activity against GABA-A receptor chloride uptake, partial agonist
[4] = biological target: GABA-A receptor; anion channel; experiment: Activation of chloride ion uptake into mouse brain synaptoneurosomes, no net uptake at […]
[5] = biological target: T1, GABA-A receptor; anion channel (Mus musculus); experiment: Agonistic activity against GABA-A receptor chloride uptake, super-agonist

Row | pEC50 [1] | Emax [2] | Emax [3] | SMILES | also measured
1 | 3.19 | 433 | – | NCCCC(=O)NCCCCCCNC(=O)CCCN | –
2 | 3.13 | – | 264 | NCCCC(=O)NCCNC(=O)CCCN | –
3 | 2.94 | 497 | – | NCCCCNC(=O)CCCN | –
4 | 3.38 | 549 | – | CC(=O)NCCCCNC(=O)CCCN | –
5 | 3.32 | – | – | NCCCC(=O)NCCCCNC(=O)CCCN | Emax [5]: 578

Continued, compound first:

Row | SMILES | pEC50 [1] | Emax [2] | Emax [3] | also measured
6 | NCCCC(=O)NCCN | – | – | – | pEC50 [4]: < 2.40
7 | CCCCNC(=O)CCCN | 3.47 | – | 362 | –
8 | Oc1noc2c1CCNC2 [GABOXADOL] | 3.47 | – | – | –
9 | NCCCC(=O)NCCNCC(=O)O | – | – | – | pEC50 [4]: < 2.40
10 | NCCCC(N)=O | 3.50 | – | 307 | –

Source: ChEMBL document CHEMBL1135189, “Discovery of non-zwitterionic GABA(A) receptor full agonists and a superagonist” (Bioorg Med Chem Lett, 2002)
